Measurements taken from ChEMBL document CHEMBL6120958, “A Highly Atom-Efficient Prodrug Approach to Generate Synergy between H2S and Nonsteroidal Anti-inflammatory Drugs and Improve Safety” (J Med Chem, 2024).
Activity calls are given as the source filed them. The calls are words filed in the database; no cut-off is given here.

Experiments:
[1] = Toxicity against collagen-induced arthritis Wistar rat model assessed as AST level in serum at 33.7 umol/kg, po administered for 28 days; format: organism-based; conditions: in vivo, 672 h, dose 33.7 µmol/kg, time 28 day
[2] = test system: Rattus norvegicus; assay: Antiinflammatory activity against collagen-induced arthritis Wistar rat model assessed as increase in IL-10 level in serum at 33.7 umol/kg, po administered for 28 days via gavage by ELISA; format: functional, organism-based; conditions: dose 33.7 µmol/kg, time 28.0 day
[3] = test system: Rattus norvegicus; assay: Antiinflammatory activity against collagen-induced arthritis Wistar rat model assessed as reduction in IL-1 beta level in serum at 33.7 umol/kg, po administered for 28 days via gavage by ELISA; format: functional, organism-based; conditions: dose 33.7 µmol/kg, time 28.0 day
[4] = Toxicity against C57BL/6J mouse assessed as ALT level in serum at 506 umol/kg, ip measured after 24 hrs; format: organism-based; conditions: in vivo, dose 506 µmol/kg
[5] = Toxicity against collagen-induced arthritis Wistar rat model assessed as uric acid level in serum at 33.7 umol/kg, po administered for 28 days; format: organism-based; conditions: in vivo, 672 h, dose 33.7 µmol/kg, time 28 day
[6] = Toxicity against collagen-induced arthritis Wistar rat model assessed as gastrointestinal tract damage by measuring ulcer area in stomach at 33.7 umol/kg, po administered for 28 days; format: organism-based; conditions: in vivo, 672 h, at 33.7 µmol/kg, time 28 day
[7] = test system: Rattus norvegicus; assay: Antiinflammatory activity against collagen-induced arthritis Wistar rat model assessed as reduction in toe swelling at 33.7 umol/kg, po administered for 28 days via gavage; format: functional, organism-based; conditions: dose 33.7 µmol/kg, time 28.0 day
[8] = Toxicity against collagen-induced arthritis Wistar rat model assessed as creatinine level in serum at 33.7 umol/kg, po administered for 28 days; format: organism-based; conditions: in vivo, 672 h, dose 33.7 µmol/kg, time 28 day
[9] = Toxicity against C57BL/6J mouse assessed as AST level in serum at 506 umol/kg, ip measured after 24 hrs; format: organism-based; conditions: in vivo, dose 506 µmol/kg
[10] = Toxicity against collagen-induced arthritis Wistar rat model assessed as glutathione level in liver at 33.7 umol/kg, po administered for 28 days; format: organism-based; conditions: in vivo, 672 h, dose 33.7 µmol/kg, time 28 day
[11] = Cardiotoxicity against Sprague-Dawley rat assessed as LDH level in serum at 13.5 mg/kg, ip administered for 6 days (reference value: 831.8 +/-23.1 U/L); format: toxicity, organism-based; conditions: in vivo, 144 h, time 6 day
[12] = Oral bioavailability in Wistar rat at 10 mg/kg; format: ADME, organism-based; conditions: in vivo
[13] = Toxicity against collagen-induced arthritis Wistar rat model assessed as gastric ulcer area at 16.8 umol/kg, po administered for 28 days; format: organism-based; conditions: in vivo, 672 h, at 16.8 µmol/kg, time 28 day
[14] = Stability of the compound in PBS at 500 uM measured for 3 months at pH 7.4 at -20 degC by HPLC analysis; format: physicochemical; conditions: buffer, pH 7.4, 2190 h
[15] = Stability of the compound in PBS at 500 uM measured within 144 hrs at pH 7.4 at 37 degC by HPLC analysis; format: physicochemical; conditions: buffer, pH 7.4, 144 h
[16] = Stability of the compound in rat plasma assessed as half life by LC-MS/MS analysis; format: ADME, cell-free
[17] = molecular target: T1, Prostaglandin G/H synthase 1 (Ovis aries, UniProt P05979); assay: Inhibition of ovine COX1 assessed as reduction in PGF2alpha production using arachidonic acid as substrate preincubated with enzyme for 10 mins followed by substrate addition and measured after 2 mins by ELISA
T1 sequence (P05979 whole entry): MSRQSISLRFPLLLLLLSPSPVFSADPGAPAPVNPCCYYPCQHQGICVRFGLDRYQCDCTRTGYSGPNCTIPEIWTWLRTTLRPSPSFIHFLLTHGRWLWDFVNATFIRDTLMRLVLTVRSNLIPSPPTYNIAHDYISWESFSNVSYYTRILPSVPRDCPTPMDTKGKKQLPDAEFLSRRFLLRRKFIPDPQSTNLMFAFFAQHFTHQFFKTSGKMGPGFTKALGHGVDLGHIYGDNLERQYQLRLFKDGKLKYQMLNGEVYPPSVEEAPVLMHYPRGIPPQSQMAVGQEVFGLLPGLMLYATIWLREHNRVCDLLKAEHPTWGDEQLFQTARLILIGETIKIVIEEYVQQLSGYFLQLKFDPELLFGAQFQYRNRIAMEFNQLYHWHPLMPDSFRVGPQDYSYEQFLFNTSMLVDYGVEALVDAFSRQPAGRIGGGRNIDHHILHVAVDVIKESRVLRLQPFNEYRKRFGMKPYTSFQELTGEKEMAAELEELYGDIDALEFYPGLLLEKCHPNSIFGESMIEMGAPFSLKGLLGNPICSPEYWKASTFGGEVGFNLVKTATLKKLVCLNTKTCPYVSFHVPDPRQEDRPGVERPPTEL

[18] = test system: Rattus norvegicus; assay: Prodrug release in Sprague-Dawley rat assessed as benzoic acid level in blood at 80 umol/kg, iv measured after 1 min by LC-MS/MS analysis; format: ADME, organism-based; conditions: in vivo, dose 80 µmol/kg
[19] = molecular target: T2, Liver carboxylesterase (Sus scrofa, UniProt Q29550); assay: Prodrug release in PBS assessed as porcine liver esterase-mediated hydrolysis at 500 uM measured at pH 7.4 in presence of PMSF by HPLC analysis; format: ADME; conditions: pig, isolated protein, pH 7.4, 500 µM
T2 sequence (Q29550 whole entry): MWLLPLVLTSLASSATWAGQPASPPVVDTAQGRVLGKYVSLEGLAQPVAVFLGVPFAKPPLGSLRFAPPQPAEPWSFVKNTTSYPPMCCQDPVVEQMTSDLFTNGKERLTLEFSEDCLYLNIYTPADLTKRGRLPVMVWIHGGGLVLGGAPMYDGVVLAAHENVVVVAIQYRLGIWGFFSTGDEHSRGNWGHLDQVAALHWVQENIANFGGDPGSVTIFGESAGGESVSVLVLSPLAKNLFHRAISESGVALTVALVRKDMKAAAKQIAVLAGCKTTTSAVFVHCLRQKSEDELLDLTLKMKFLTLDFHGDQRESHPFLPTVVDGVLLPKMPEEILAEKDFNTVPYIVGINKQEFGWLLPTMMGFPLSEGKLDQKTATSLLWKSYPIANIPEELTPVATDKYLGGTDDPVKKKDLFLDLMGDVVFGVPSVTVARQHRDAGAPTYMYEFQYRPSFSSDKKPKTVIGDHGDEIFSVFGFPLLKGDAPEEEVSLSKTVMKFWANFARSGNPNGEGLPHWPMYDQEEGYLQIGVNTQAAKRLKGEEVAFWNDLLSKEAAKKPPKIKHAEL

[20] = molecular target: T2, Liver carboxylesterase; assay: Prodrug release in PBS assessed as porcine liver esterase-mediated hydrolysis by measuring half-life at 500 uM measured at pH 7.4 by HPLC analysis; format: ADME; conditions: pig, isolated protein, pH 7.4, 500 µM
[21] = molecular target: T2, Liver carboxylesterase; assay: Prodrug release in PBS assessed as porcine liver esterase-mediated hydrolysis by measuring H2S concentration at 500 uM measured at pH 7.4 after 5 hrs by methylene blue method; format: ADME; conditions: pig, isolated protein, pH 7.4, 5 h
[22] = Stability in Sprague-Dawley rat assessed as parent compound level in blood at 80 umol/kg, iv measured after 1 min by LC-MS/MS analysis; format: ADME, organism-based; conditions: whole blood, dose 80 µmol/kg, read-out: Stability
[23] = test system: Mus musculus; assay: Prodrug release in C57BL/6J mouse assessed as increase in H2S concentration in blood at 50 umol/kg, iv measured after 15 mins by gas chromatography; format: ADME, organism-based; conditions: in vivo, 0.25 h, dose 50 µmol/kg
[24] = test system: Rattus norvegicus; assay: Prodrug release in Sprague-Dawley rat assessed as benzoic acid level in blood at 80 umol/kg, iv measured after 5 mins by LC-MS/MS analysis; format: ADME, organism-based; conditions: in vivo, dose 80 µmol/kg
[25] = molecular target: T2, Liver carboxylesterase; assay: Prodrug release in PBS assessed as porcine liver esterase-mediated hydrolysis by measuring peak H2S concentration at 500 uM measured at pH 7.4 after 80 mins by methylene blue method; format: ADME; conditions: pig, isolated protein, pH 7.4, 1.333 h
[26] = Stability in Sprague-Dawley rat assessed as parent compound level in blood at 80 umol/kg, iv measured after 5 mins by LC-MS/MS analysis; format: ADME, organism-based; conditions: whole blood, dose 80 µmol/kg, read-out: Stability
[27] = molecular target: T3, Prostaglandin G/H synthase 2 (Homo sapiens, UniProt P35354); assay: Inhibition of human recombinant COX2 assessed as reduction in PGF2alpha production using arachidonic acid as substrate preincubated with enzyme for 10 mins followed by substrate addition and measured after 2 mins by ELISA
T3 sequence (P35354 whole entry): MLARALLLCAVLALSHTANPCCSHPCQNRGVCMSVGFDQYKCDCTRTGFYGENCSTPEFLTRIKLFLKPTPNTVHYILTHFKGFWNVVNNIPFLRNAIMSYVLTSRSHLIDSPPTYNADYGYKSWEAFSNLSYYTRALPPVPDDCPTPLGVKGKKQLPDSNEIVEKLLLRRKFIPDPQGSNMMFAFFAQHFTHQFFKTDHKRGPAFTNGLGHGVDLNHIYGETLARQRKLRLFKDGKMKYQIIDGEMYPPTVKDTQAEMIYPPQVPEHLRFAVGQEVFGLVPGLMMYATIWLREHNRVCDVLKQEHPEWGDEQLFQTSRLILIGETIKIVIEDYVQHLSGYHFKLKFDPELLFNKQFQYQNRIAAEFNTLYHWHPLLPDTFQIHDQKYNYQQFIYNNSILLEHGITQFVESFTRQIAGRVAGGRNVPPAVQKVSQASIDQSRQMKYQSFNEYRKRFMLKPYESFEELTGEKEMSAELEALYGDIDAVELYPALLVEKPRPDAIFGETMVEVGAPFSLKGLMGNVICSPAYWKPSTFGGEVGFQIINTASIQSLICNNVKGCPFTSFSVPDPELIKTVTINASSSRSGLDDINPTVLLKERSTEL

[28] = molecular target: T2, Liver carboxylesterase; assay: Prodrug release in PBS assessed as porcine liver esterase-mediated hydrolysis by measuring peak H2S concentration at 500 uM measured at pH 7.4 after 40 mins by methylene blue method; format: ADME; conditions: pig, isolated protein, pH 7.4, 40 min
[29] = test system: Mus musculus; assay: (§1) Protection against ischemia/reperfusion injury in middle cerebral artery occlusion C57BL/6J mouse model assessed as decrease in malondialdehyde level in brain at 100 umol/kg, iv administered within initial 20 mins of ischemia period followed by reperfusion for 24 hrs after 1 hr and 20 mins of ischemia period and measured at 24 hrs post-reperfusion; format: functional, organism-based; conditions: dose 100.0 µmol/kg, time 2960.0 min
[30] = test system: Mus musculus; assay: as §1, with “infarct size” for “malondialdehyde level”, “post-reperfusion by TTC staining based analysis” for “post-reperfusion”; format: functional, organism-based; conditions: dose 100.0 µmol/kg, time 2960.0 min
[31] = molecular target: T2, Liver carboxylesterase; assay: Prodrug release in PBS assessed as porcine liver esterase-mediated hydrolysis by measuring peak H2S concentration at 500 uM measured at pH 7.4 after 90 mins by methylene blue method; format: ADME; conditions: pig, isolated protein, pH 7.4, 1.5 h

## O=C(O)Cc1ccccc1Nc1c(Cl)cccc1Cl [DICLOFENAC]
[1]
  Activity: 75.3 U/L
[2]
  Activity: Active
[3]
  Activity: Active
[4]
  Activity: 76.9 U/L
[5]
  Activity: 165.6 µmol/L
[6]
  Activity: 0.42%
[7]
  Activity: Active
[8]
  Activity: 342.6 µmol/L
[9]
  Activity: 128.6 U/L
[10]
  Activity: 0.8 µg/mg
[11]
  Activity: 2249 U/L
[12]
  bioavailability: 75%
[13]
  Activity: 0.09%

## CC(C(=O)[S-])c1ccc(-c2ccccc2)c(F)c1.[Na+] (configuration not stated)
[14]
  Stability: Stable
[15]
  Stability: Stable
[16]
  half-life: 4.67 h
[17]
  IC50: 221 nM

## COc1ccc(CCC(=O)[S-])cc1.[Na+]
[14]
  Stability: Stable
[15]
  Stability: Stable

## O=C([S-])c1ccccc1.[Na+]
[14]
  Stability: Stable
[18]
  Drug metabolism: 46.4 µM
[19]
  Drug metabolism: metabolite_notdetected
[20]
  t1/2: 2.51 h
[21]
  Drug metabolism: metabolite_detected
[22]
  concentration at 1 min: 439 µM
[23]
  Drug metabolism: metabolite_detected
[24]
  Drug metabolism: 78.3 µM
[15]
  Stability: Stable
[25]
  Drug metabolism: 70 µM
[26]
  concentration at 5 min: 113 µM
[16]
  half-life: 2.17 h

## Cc1ccc(CC(=O)[S-])cc1.[Na+]
[14]
  Stability: Stable
[15]
  Stability: Stable

## O=C([S-])Cc1ccccc1.[Na+]
[14]
  Stability: Stable
[15]
  Stability: Stable

## COc1ccc2cc([C@H](C)C(=O)[S-])ccc2c1.[Na+]
[14]
  Stability: Stable
[15]
  Stability: Stable
[16]
  half-life: 6.73 h
[17]
  IC50: 1300 nM

## COc1ccc2cc([C@H](C)C(=O)O)ccc2c1 [NAPROXEN]
[27]
  IC50: 10600 nM

## O=C([S-])c1ccc2ccccc2c1.[Na+]
[14]
  Stability: Stable
[15]
  Stability: Stable

## O=C([S-])Cc1ccc2ccccc2c1.[Na+]
[14]
  Stability: Stable
[15]
  Stability: Stable

## O=C([S-])CCc1ccc(Cl)cc1.[Na+]
[14]
  Stability: Stable
[20]
  t1/2: 0.0967 h
[28]
  Drug metabolism: 129 µM
[15]
  Stability: Stable

## COc1ccc(C(=O)[S-])cc1.[Na+]
[14]
  Stability: Stable
[15]
  Stability: Stable

## O=C([S-])CCc1ccccc1.[Na+]
[14]
  Stability: Stable
[15]
  Stability: Stable

## Cc1ccc(C(=O)[S-])cc1.[Na+]
[14]
  Stability: Stable
[15]
  Stability: Stable

## OC(=S)c1ccccc1
[29]
  Activity: Active
[30]
  Activity: Active; Comparable Efficacy To Na2S Observed

## COc1ccc2c(c1)c(CC(=O)[S-])c(C)n2C(=O)c1ccc(Cl)cc1.[Na+]
[14]
  Stability: Stable
[20]
  t1/2: 4.45 h
[15]
  Stability: Stable
[16]
  half-life: 21.3 h
[17]
  IC50: 7.6 nM
[31]
  Drug metabolism: 29 µM
